From patent US6949584B2, “TNP-470 species, polymer conjugates and use thereof” (Children's Medical Center Corporation, priority 2002, dated 2005)
Values joined by “and” are separate entries in the source; they are usually repeats but may differ in a detail not shown here. Equal values may be shown once. “Also recorded” adds a separate entry of the source.

How the values were obtained:
[1] = Early mouse development; conditions: injected into 7 and 17 day-old mice
[2] = in vivo; conditions: male, C57BL/6J, mouse, 30 mg/kg
[3] = test system: LLC; assay: Antitumor activity, C57BL/6J mice bearing s.c. LLC; conditions: for survival: 30 mg/kg q.o.d. TNP-470 equivalent; for tumor growth inhibition: day 8, 30 mg/kg q.o.d., treatment started at 100 mm^3; for T/C: day 8, treatment started at 500 mm^3
Source text: Male C57BL/6J mice (˜8 weeks, ˜20 g) were inoculated with 5×10^6 viable LLC or A2058 melanoma cells s.c. The tumors were allowed to grow to a volume of approximately 100 mm^3. […] Each group consisted of 5 mice. Mice were euthanized when tumors reached or surpassed a size equivalent to 30% of their body weight. Animals were weighed daily and observed for signs of tumor progression and euthanized if their body weight decreased below 80% of their starting weight. Animals were monitored for general health, weight loss, and tumor progression. At termination, mice underwent post-mortem examination and tumors were dissected and weighed. […] The same dosing schedule was repeated with white SCID male mice (˜8 weeks, 20 g) inoculated with 5×10^6 viable A2058 human melanoma cells s.c. and treated as described above.

[4] = test system: murine, human and metastatic tumors; conditions: cited from earlier work
[5] = test system: liver regeneration; assay: Hepatectomy (liver regeneration) model; type: in vivo, C57BL/6J mice; conditions: for average liver size on post-operative day 8: 30 mg/kg q.o.d. s.c., controls regenerate to ~1.2 g
Protocol: Male C57BL/6J mice underwent a partial hepatectomy through a midline incision after general anesthesia with isoflourane^33. Free or conjugated TNP-470 (30 mg/kg) were given s.c. every other day for 8 days beginning on the day of surgery according to the scheme described in FIG. 4a. Alternatively, the doses given were 60 mg/kg the day of surgery and 4 days later or 120 mg/kg once on the day of the partial hepatectomy. The liver was harvested on the 8th day, weighed and analyzed by histology.
This non-neoplastic model is a relatively fast (8 days) in vivo angiogenesis-dependent process^33.

[6] = Rotorod test and body weight, 5 weeks treatment
[7] = Water solubility
[8] = test system: LLC; conditions: at doses of 60 and 90 mg/kg/q.o.d., stated as known; cited from earlier work
[9] = test system: A2058 human melanoma; assay: Antitumor activity, SCID mice bearing s.c. A2058 human melanoma; type: in vivo; conditions: for T/C (mean tumor volume treated / untreated control) / survival: 30 mg/kg TNP-470 equivalent
Source text: Each group consisted of 5 mice. […] 500 mm^3.

[10] = test system: chick aortic ring; assay: Chick aortic ring endothelial sprouting assay; type: cell-based; conditions: Matrigel
Protocol: Aortic arches were dissected from day-14 chick embryos, cut into cross-sectional fragments, and implanted in vitro in Matrigel using a modification of methods previously described (V. Muthukkaruppan, personal communication). When cultured in MCDB-131 medium supplemented with 5% fetal bovine serum, endothelial cells sprouted and vascular channel formation occurred within 24-48 hours.

[11] = test system: A2058 melanoma cells; assay: Serum-induced A2058 cell proliferation
Protocol: The dotted line represents the proliferation of bFGF-induced BCE or serum-induced A2058 cells (—) and the […] represents the BCE and A2058 cell proliferation in the absence of bFGF or serum, respectively ( - - - ).
BCE cells were obtained and grown as previously described^48. For the proliferation assay, cells were washed with PBS and dispersed in a 0.05% trypsin solution. […] The media was replaced with 0.25 ml of DMEM, 5% BCS and 1% GPS and the test sample applied. […] After 30 min of incubation, media and bFGF were added to obtain a final volume of 0.5 ml of DMEM, 5% BCS, 1% GPS and 1 ng/ml bFGF. Control cells were grown with or without bFGF. After 72 hr, cells were dispersed in trypsin, resuspended in Hematall (Fisher Scientific, Pittsburgh, Pa.), and counted in a Coulter counter.

[12] = clinical pharmacokinetics, in words; cited from earlier work
[13] = biological target: cathepsin B (Homo sapiens, UniProt P07858); conditions: incubation with cathepsin B, pH 5.5, 37° C.
Source text: These conditions imitate the lysosomal environment in endothelial cells where lysosomal enzymes, such as cathepsin B, are present.

[14] = in mice, mostly 30 mg/kg subcutaneously every other day
[15] = 30 mg/kg q.o.d. s.c. for 5 weeks

CO[C@@H]1[C@H](OC(=O)NC(=O)CCl)CC[C@]2(CO2)[C@H]1[C@@]1(C)O[C@@H]1CC=C(C)C [TNP-470, O-(chloracetyl-carbamoyl) fumagillol]
effect on normal development (weight gain) of newborn mice [1]: causes delay in newborn mice development; also recorded: inhibited growth | concentration at 1 h [2]: 0.9 ng/mL | concentration at 2 h [2]: 1.7 ng/mL | survival [3]: increased survival | tumor growth inhibition [3]: 67% | inhibition of growth of human tumors [4, 14]: up to 100% | inhibition of growth of metastatic tumors [4, 14]: up to 100% | inhibition of growth of murine tumors ([4]; mostly 30 mg/kg subcutaneously every other day): up to 91% | body weight of animals receiving the drug ([4]; with few exceptions): weight loss or failure to gain weight | TNP-470 in serum (after the 2 h time point): no detectable | free TNP-470 concentrations in tumor specimens (any sample time point): no detectable concentrations | average liver size on post-operative day 8 [5]: 0.7 g | inhibition of liver regeneration ([5]; 30 mg/kg/q.o.d s.c.): inhibited liver regeneration | inhibition of liver regeneration ([5]; 60 mg/kg every four days): did not inhibit liver regeneration | inhibition of liver regeneration ([5]; single injection of 120 mg/kg on the day of hepatectomy, 120 mg/kg): did not inhibit liver regeneration | body weight [6, 15]: lost weight | time remaining on the rotating rod [6, 15]: significantly shorter times | neurohistological alterations ([6]; data not shown): no visible neurohistological alterations | water solubility [7]: not water-soluble | toxicity to the mice [8]: toxic | T/C (mean tumor volume treated / untreated control) [9]: 0.34 | survival [9]: increased survival | concentration that completely prevented outgrowth [10]: 100 pg/mL | concentration that reduced the number and length of vascular sprouts [10]: 50 pg/mL | concentration at which inhibition of serum-induced proliferation (cytostatic effect) begins ([11]; 72 h): ≥ 10 ng/mL | doses with cytotoxic effect ([11]; 72 h): higher than 100 μg/ml | potency on endothelial cells relative to tumor cells ([11]; BCE versus A2058 / tumor cells): 4 logs and 3 logs

COc1cccc2c1C(=O)c1c(O)c3c(c(O)c1C2=O)C[C@@](O)(C(=O)CO)C[C@@H]3O[C@H]1C[C@H](N)[C@H](O)[C@H](C)O1 [doxorubicin]
t1/2a [12]: a few minutes

HPMA copolymer-Gly-Phe-Leu-Gly (SEQ ID NO: 1)-ethylenediamine-TNP-470 [HPMA copolymer-TNP-470]
survival [3]: increased survival | T/C ([3]; 30 mg/kg/q.o.d): 0.4 | T/C ([3]; 60 mg/kg/q.o.d): 0.4 | T/C ([3]; 90 mg/kg/q.o.d): 0.24 | tumor growth inhibition [3]: 86% | average liver size on post-operative day 8 [5]: 0.7 g | inhibition of liver regeneration ([5]; 30 mg/kg/q.o.d s.c.): inhibited liver regeneration | inhibition of liver regeneration ([5]; 60 mg/kg every four days, listed as Conjugated TNP-470): inhibited liver regeneration | inhibition of liver regeneration ([5]; 60 mg/kg every four days, listed as HPMA copolymer-TNP-470 conjugate): equivalent effect as the 30 mg/kg q.o.d. dosing schedule | inhibition of liver regeneration ([5]; single injection of 120 mg/kg on the day of hepatectomy, listed as Conjugated TNP-470, 120 mg/kg): inhibited liver regeneration | inhibition of liver regeneration ([5]; single injection of 120 mg/kg on the day of hepatectomy, listed as HPMA copolymer-TNP-470 conjugate, 120 mg/kg): equivalent effect as the 30 mg/kg q.o.d. dosing schedule | time until TNP-470 release from the conjugate reached a plateau [13]: ≤ 5 h | T/C (mean tumor volume treated / untreated control) [9]: 0.12 | survival [9]: increased survival | T/C values for the conjugate ([9]; summary statement in the conclusions, model not named): 0.12-0.14 | concentration that completely prevented outgrowth [10]: 100 pg/mL | concentration that reduced the number and length of vascular sprouts [10]: 50 pg/mL
